{"source": "patent US20230364242A1", "about": "“WATER-SOLUBLE COMPLEX CONTAINING BETA BLOCKER AND LECITHIN” (NISSAN CHEMICAL CORPORATION, priority 2020, published 2023)", "origin": "cited, not measured here", "conditions": "literature reports"}
{"smiles": "CC(C)NCC(O)COc1cccc2ccccc12", "note": "(stereo not shown) [propranolol]", "values": [{"measurement": "photolysis", "result": "decomposition particularly proceeds in an aqueous solution"}]}
